Results from patent US8927560B2, “4-Aza-2, 3-didehydropodophyllotoxin compounds and process for the preparation thereof” (Council of Scientific & Industrial Research, priority 2010, dated 2015).

What was measured:
A-549 = experiment: SRB in vitro cytotoxicity assay, A-549 lung cancer cells; format: cell-based; conditions: Homo sapiens, A549, 48 h drug exposure, read-out: In vitro anticancer activity GI50, Lung A-549
Text: (§1) Compounds 4a-4z and 4aa-4ae have been evaluated for their in vitro cytotoxicity in selected human cancer cell lines i.e., colon (Colo205), lung (Hop-62, A549), cervix (SiHa), prostate (PC3), oral (KB, DWD, Gurav), Ovarian (A-2780) and breast (MCF7, Zr-75-1) origin by employing the sulforhodamine B (SRB) assay method (Skehn, P.; Storeng, R.; Scudiero, A.; Monks, J.; MeMohan, D.; Vistica, D.; Jonathan, T. W.; Bokesch, H.; Kenney, S.; Boyd M. R. J. Natl. Cancer Inst. 1990, 82, 1107).
(§2) The synthesized compounds have been evaluated for their in vitro cytotoxicity in human cancer cell lines. A protocol of 48 h continuous drug exposure has been used and a sulforhodamine B (SRB) protein assay has been used to estimate cell viability or growth. The cell lines were grown in DMEM medium containing 10% fetal bovine serum and 2 mM L-glutamine and were inoculated into 96 well microtiter plates in […] at plating densities depending on the doubling time of individual cell lines. The microliter plates were incubated at 37_C, 5% CO2, 95% air, and 100% relative humidity for 24 h prior to addition of experimental drugs. Aliquots of […] of the drug dilutions were added to the appropriate microliter wells already containing […] of cells, suiting in the required final drug concentrations. For each compound four concentrations (0.1, 1, 10 and 100 uM) were evaluated and each was done in triplicate wells. Plates were incubated further for 48 h and assay was terminated by the addition of […] of cold trichloro acetic acid (TCA) (final concentration, 10% TCA) and incubated for 60 min at 4_C. The plates were washed five times with tap water and airdried. Sulforhodamine B (SRB) solution ([…]) at 0.4% (w/v) in 1% acetic acid was added to each of the cells, and plates were incubated for 20 min at room temperature. The residual dye was removed by washing five times with 1% acetic acid. The plates were airdried. Bound stain was subsequently eluted with 10 mM trizma base, and the absorbance was read on an ELISA plate reader at a wavelength of 540 nm with 690 nm reference wavelengths. Percent growth was calculated on a plate by plate basis for test wells relative to control wells. The above determinations were repeated three times. Percentage growth was expressed as the (ratio of average absorbance of the test well to the average absorbance of the control wells)*100. Growth inhibition of 50% (GI50) was calculated from [(Ti−Tz)/(C−Tz)]*100 ¼ 50, which is the drug concentration resulting in a 50% reduction in the net protein increase (as measured by SRB staining) in control cells during the drug incubation. Where, Tz ¼ Optical density at time zero, OD of control ¼ C, and OD of test growth in the presence of drug ¼ Ti.

KB = experiment: SRB in vitro cytotoxicity assay, KB oral cancer cells; format: cell-based; conditions: Homo sapiens, 48 h drug exposure, read-out: In vitro anticancer activity GI50, Oral KB
Text: as §1, §2

Gurav = experiment: SRB in vitro cytotoxicity assay, Gurav oral cancer cells; format: cell-based; conditions: Homo sapiens, 48 h drug exposure, read-out: In vitro anticancer activity GI50, Oral Gurav
Text: as §1, §2

Colo 205 = experiment: SRB in vitro cytotoxicity assay, Colo 205 colon cancer cells; format: cell-based; conditions: Homo sapiens, 48 h drug exposure, read-out: In vitro anticancer activity GI50, Colon Colo 205
Text: as §1, §2

Zr-75-1 = experiment: SRB in vitro cytotoxicity assay, Zr-75-1 breast cancer cells; format: cell-based; conditions: Homo sapiens, 48 h drug exposure, read-out: In vitro anticancer activity GI50, Breast Zr-75-1
Text: as §1, §2

Hop62 = experiment: SRB in vitro cytotoxicity assay, Hop62 lung cancer cells; format: cell-based; conditions: Homo sapiens, HOP-62, 48 h drug exposure, read-out: In vitro anticancer activity GI50, Lung Hop62
Text: as §1, §2

DWD = experiment: SRB in vitro cytotoxicity assay, DWD oral cancer cells; format: cell-based; conditions: Homo sapiens, 48 h drug exposure, read-out: In vitro anticancer activity GI50, Oral DWD
Text: as §1, §2

PC3 = experiment: SRB in vitro cytotoxicity assay, PC3 prostate cancer cells; format: cell-based; conditions: Homo sapiens, PC-3, 48 h drug exposure, read-out: In vitro anticancer activity GI50, Prostate PC3
Text: as §1, §2

MCF7 = experiment: SRB in vitro cytotoxicity assay, MCF7 breast cancer cells; format: cell-based; conditions: Homo sapiens, 48 h drug exposure, read-out: In vitro anticancer activity GI50, Breast MCF7
Text: as §1, §2

A-2780 = experiment: SRB in vitro cytotoxicity assay, A-2780 ovarian cancer cells; format: cell-based; conditions: Homo sapiens, A2780, 48 h drug exposure, read-out: In vitro anticancer activity GI50, Ovarian A-2780
Text: as §1, §2

SiHa = experiment: SRB in vitro cytotoxicity assay, SiHa cervix cancer cells; format: cell-based; conditions: Homo sapiens, 48 h drug exposure, read-out: In vitro anticancer activity GI50, Cervix SiHa
Text: as §1, §2

| Compound | GI50 (A-549) [nM] | GI50 (KB) [nM] | GI50 (Gurav) [nM] | GI50 (Colo 205) [nM] | GI50 (Zr-75-1) [nM] | melting point [°C] | GI50 (Hop62) [nM] | GI50 (DWD) [nM] | GI50 (PC3) [nM] | GI50 (MCF7) [nM] | GI50 (A-2780) [nM] | GI50 (SiHa) [nM] |
| --- | --- | --- | --- | --- | --- | --- | --- | --- | --- | --- | --- | --- |
| COc1nc2c(c(OC)n1)C(c1cc(OC)c(OC)c(OC)c1)C1=C(COC1=O)N2 (centres unmarked) [Compound 4a, 2,4-dimethoxy-5-(3,4,5-trimethoxyphenyl)-5,6,8,9-tetrahydrofuro[3′,4′:5,6]pyrido[2,3-d]pyrimidin-6-one] | 2100 | 170 | 2000 | 160 | 2200 | 299 to 300 | 2500 | 2400 | 2400 | 2400 |  |  |
| COc1ccc(-c2noc3c2C(c2ccc(OC)c(O)c2)C2=C(COC2=O)N3)cc1 (centres unmarked) [Compound 4ab, 4-(3-hydroxy-4-methoxyphenyl)-3-(4-methoxyphenyl)-4,5,7,8-tetrahydrofuro[3′,4′:5,6]pyrido[3,2-d]isoxazol-5-one] | < 100 | 170 | 140 | 2700 | 140 | 219 to 221 | 140 | < 100 | 160 | 190 | 160 |  |
| COc1cc(C2C3=C(COC3=O)Nc3onc(-c4ccc(Cl)cc4)c32)cc(OC)c1OC (centres unmarked) [Compound 4ac, 3-(4-chlorophenyl)-4-(3,4,5-trimethoxyphenyl)-4,5,7,8-tetrahydrofuro[3′,4′:5,6]pyrido[3,2-d]isoxazol-5-one] | < 100 | 2400 | 180 |  | 190 | 248 to 249 | 2500 | 2000 | 2300 | 2300 | 2000 | 2300 |
| COc1ccc(C2C3=C(COC3=O)Nc3ccc4cc[nH]c4c32)cc1O (centres unmarked) [Compound 4g, 10-(3-hydroxy-4-methoxyphenyl)-6,7,9,10-tetrahydro-1H-furo[3,4-b]pyrrolo[2,3-f]quinolin-9-one] | 2300 | 2200 | 2300 | 190 | 2800 | 297 to 299 | 2200 |  |  | 2900 | 2700 |  |
| COc1cc(C2C3=C(COC3=O)Nc3ccc4cc[nH]c4c32)ccc1F (centres unmarked) [Compound 4h, 10-(4-fluoro-3-methoxyphenyl)-6,7,9,10-tetrahydro-1H-furo[3,4-b]pyrrolo[2,3-f]quinolin-9-one] | 2200 | 170 | 2500 |  | 2500 | 170 to 172 | 2600 | 2600 |  | 2100 | 2300 |  |
| COc1cc(C2C3=C(COC3=O)Nc3ccc4cc(C)[nH]c4c32)cc(OC)c1OC (centres unmarked) [Compound 4j, 2-methyl-10-(3,4,5-trimethoxyphenyl)-6,7,9,10-tetrahydro-1H-furo[3,4-b]pyrrolo[2,3-f]quinolin-9-one] |  |  |  |  |  |  |  |  |  |  |  | 2600 |
| COc1ccc(C2C3=C(COC3=O)Nc3ccc4cc(C)[nH]c4c32)cc1O (centres unmarked) [Compound 4k, 10-(3-hydroxy-4-methoxyphenyl)-2-methyl-6,7,9,10-tetrahydro-1H-furo[3,4-b]pyrrolo[2,3-f]quinolin-9-one] | < 100 | 2100 | 170 | 2700 | 170 | 293 to 294 | 160 | 2000 | 170 | 2000 | 190 |  |
| COc1cc(C2C3=C(COC3=O)Nc3ccc4cn[nH]c4c32)ccc1O (centres unmarked) [Compound 4o, 10-(4-hydroxy-3-methoxyphenyl)-6,7,9,10-tetrahydro-1H-furo[3,4-b]pyrazolo[3,4-f]quinolin-9-one] |  |  |  | 2000 | 2100 | 238 to 240 | 2800 |  | 2300 | 2000 |  |  |
| COc1ccc(C2C3=C(COC3=O)Nc3ccc4cn[nH]c4c32)cc1[N+](=O)[O-] (centres unmarked) [Compound 4r, 10-(4-methoxy-3-nitrophenyl)-6,7,9,10-tetrahydro-1H-furo[3,4-b]pyrazolo[3,4-f]quinolin-9-one] | < 100 | 120 | 140 | 2200 | 140 | 217 to 218 | 130 | < 100 | 160 | 160 | 130 |  |
| COc1cc(C2C3=C(COC3=O)Nc3ccc4ncsc4c32)ccc1O (centres unmarked) [Compound 4t, 10-(4-hydroxy-3-methoxyphenyl)-6,7,9,10-tetrahydrofuro[3,4-b][1,3]thiazolo[5,4-f]quinolin-9-one] | < 100 | 150 | 140 | 2200 | < 100 | 296 to 297 | 120 | < 100 | 160 | 150 | 150 |  |
| COc1cc(C2C3=C(COC3=O)Nc3ccc4nc(C)sc4c32)ccc1O (centres unmarked) [Compound 4v, 10-(4-hydroxy-3-methoxyphenyl)-2-methyl-6,7,9,10-tetrahydrofuro[3,4-b][1,3]thiazolo[5,4-f]quinolin-9-one] | < 100 | 2000 | 180 |  | 170 | 293 to 295 | 170 | < 100 | 160 | 160 | 120 | 180 |
